According to patent US20090069565A1, “NEW INDOLE DERIVATIVES AS FACTOR XA INHIBITORS” (priority 2001, published 2009):
Read-outs that look alike come from different tables or passages of the source.

Molecular target: human factor Xa (Homo sapiens, UniProt P00742)
Test: Factor Xa assay (chromogenic, substrate S-2765);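 note: purified enzyme preincubated with inhibitor for 10 min before substrate addition, final reaction volume 100 µl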
Assay type: biochemical
[1] = inhibition constant for factor Xa, purified enzyme 0.5 nM, substrate S-2765 140 μM, 25° C., pH 7.8, Ki=IC50/{1+(substrate concentration/Km)}, read-out: Ki(FXa)

Chain of human factor Xa (P00742 235-488 limits assumed): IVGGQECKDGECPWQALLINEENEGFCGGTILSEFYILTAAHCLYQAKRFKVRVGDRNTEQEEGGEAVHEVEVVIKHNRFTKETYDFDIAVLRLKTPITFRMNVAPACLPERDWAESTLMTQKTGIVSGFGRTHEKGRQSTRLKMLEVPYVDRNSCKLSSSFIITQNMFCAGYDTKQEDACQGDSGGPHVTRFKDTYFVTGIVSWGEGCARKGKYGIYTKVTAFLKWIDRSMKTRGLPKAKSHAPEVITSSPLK
Chain of human factor Xa (P00742 41-179 partner limits assumed): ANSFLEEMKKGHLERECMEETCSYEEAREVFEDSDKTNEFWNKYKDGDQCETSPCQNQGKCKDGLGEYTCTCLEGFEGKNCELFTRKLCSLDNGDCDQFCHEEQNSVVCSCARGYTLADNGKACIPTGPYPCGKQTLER

Row | Structure (SMILES) | Ki (read-out: Ki(FXa)) [nM] | Ki [1] [nM] | further results
1 | O=C(NCC1CC(c2ccncc2)=NO1)c1cc2ccccc2n1Cc1cc(-c2ccc(Cl)s2)on1 (stereo not drawn) [Example 41, 1-[5-(5-Chloro-thiophen-2-yl)-isoxazol-3-ylmethyl]-1H-indole-2-carboxylic acid (3-pyridin-4-yl-4,5-dihydro-isoxazol-5-ylmethyl)-amide] | 1030 |  | 
2 | O=C(c1cc2ccccc2n1Cc1cc(-c2ccc(Cl)s2)on1)N1CCN(Cc2ccncc2)CC1 [Example 43, {1-[5-(5-Chloro-thiophen-2-yl)-isoxazol-3-ylmethyl]-1H-indol-2-yl}-(4-pyridin-4-ylmethyl-piperazin-1-yl)-methanone] | 504 |  | 
3 | O=C(NCC1CCN(c2ccncc2)CC1)c1cc2ccccc2n1Cc1cc(-c2ccc(Cl)s2)on1 [Example 47, 1-[5-(5-Chloro-thiophen-2-yl)-isoxazol-3-ylmethyl]-1H-indole-2-carboxylic acid (3,4,5,6-tetrahydro-2H-[1,4′]bipyridinyl-4-ylmethyl)-amide] |  | 64 | 
4 | O=C(NC1CCN(C2CC2)CC1)c1cc2ccccc2n1Cc1cc(-c2ccc(Cl)s2)on1 [Example 48, 1-[5-(5-Chloro-thiophen-2-yl)-isoxazol-3-ylmethyl]-1H-indole-2-carboxylic acid (1-cyclopropyl-piperidin-4-yl)-amide] |  | 27 | 
5 | COc1cccc(Cn2c(C(=O)NCC3CCN(c4ccncc4)CC3)cc3ccccc32)c1 [Example 55] | 1700 |  | 
6 | COc1cccc(Cn2c(C(=O)NC3CCN(C(C)C)CC3)cc3c(OC)cccc32)c1 [Example 66, 4-Methoxy-1-(3-methoxy-benzyl)-1H-indole-2-carboxylic acid (1-isopropyl-piperidin-4-yl)-amide] | 43 |  | 
7 | COc1cccc(Cn2c(C(=O)NC3CCN(C(C)C)CC3)cc3cc(Cl)ccc32)c1 [Example 67, 5-Chloro-1-(3-methoxy-benzyl)-1H-indole-2-carboxylic acid (1-isopropyl-piperidin-4-yl)-amide] | 187 |  | 
8 | COc1cccc(Cn2c(C(=O)NC3CCN(C(C)C)CC3)cc3cc(C)ccc32)c1 [Example 69, 1-(3-Methoxy-benzyl)-5-methyl-1H-indole-2-carboxylic acid (1-isopropyl-piperidin-4-yl)-amide] | 159 |  | 
9 | COc1cccc(Cn2c(C(=O)NC3CCN(C(C)C)CC3)cc3cc(OCc4ccccc4)ccc32)c1 [Example 70] | 114 |  | 
10 | COc1cccc(Cn2c(C(=O)NC3CCN(C(C)C)CC3)cc3cc([N+](=O)[O-])ccc32)c1 [Example 71, 1-(3-Methoxy-benzyl)-5-nitro-1H-indole-2-carboxylic acid (1-isopropyl-piperidin-4-yl)-amide] | 277 |  | 
11 | COc1cccc(Cn2c(C(=O)NC3CCN(C(C)C)CC3)cc3cc(OC)ccc32)c1 [Example 72, 5-Methoxy-1-(3-methoxy-benzyl)-1H-indole-2-carboxylic acid (1-isopropyl-piperidin-4-yl)-amide] | 167 |  | 
12 | CC(C)N1CCC(NC(=O)c2cc3ccccc3n2Cc2cc3ccc(Cl)cc3s2)CC1 [Example 119, 1-(6-Chloro-benzo[b]thiophen-2-ylmethyl)-1H-indole-2-carboxylic acid (1-isopropyl-piperidin-4-yl)-amide] |  | 40 | 
13 | CC(C)N1CCC(NC(=O)c2cc3ccccc3n2Cc2nnc(-c3ccc(Cl)s3)s2)CC1 [Example 120, 1-[5-(5-Chloro-thiophen-2-yl)-[1,3,4]thiadiazol-2-ylmethyl]-1H-indole-2-carboxylic acid (1-isopropyl-piperidin-4-yl)-amide] |  | 4 | 
14 | CC(C)N1CCC(NC(=O)c2cc3ccccc3n2Cc2cc(-c3ccc(Cl)s3)no2)CC1 [Example 121, 1-[3-(5-Chloro-thiophen-2-yl)-isoxazol-5-ylmethyl]-1H-indole-2-carboxylic acid (1-isopropyl-piperidin-4-yl)-amide] |  | 3 | 
15 | CC(C)N1CCC(NC(=O)c2c(Cl)c3ccccc3n2Cc2cc(-c3ccc(Cl)s3)on2)CC1 [Example 122, 3-Chloro-1-[5-(5-chloro-thiophen-2-yl)-isoxazol-3-ylmethyl]-1H-indole-2-carboxylic acid (1-isopropyl-piperidin-4-yl)-amide] |  | 2 | 
16 | CC(C)N1CCC(NC(=O)c2c(Br)c3ccccc3n2Cc2cc(-c3ccc(Cl)s3)on2)CC1 [Example 123, 3-Bromo-1-[5-(5-chloro-thiophen-2-yl)-isoxazol-3-ylmethyl]-1H-indole-2-carboxylic acid (1-isopropyl-piperidin-4-yl)-amide] |  | 2 | 
17 | CC(C)N1CCC(NC(=O)c2cc3ccccc3n2Cc2ccc(OC(F)(F)F)cc2)CC1 [Example 146, 1-(4-Trifluoromethoxy-benzyl)-1H-indole-2-carboxylic acid (1-isopropyl-piperidin-4-yl)-amide] | 440 |  | 
18 | CC(C)N1CCC(NC(=O)c2cc3ccccc3n2Cc2ccccc2Cl)CC1 [Example 148, 1-(2-Chloro-benzyl)-1H-indole-2-carboxylic acid (1-isopropyl-piperidin-4-yl)-amide] | 1930 |  | 
19 | CC(C)N1CCC(NC(=O)c2cc3ccccc3n2Cc2cc(Cl)cc(Cl)c2)CC1 [Example 157, 1-(3,5-Dichloro-benzyl)-1H-indole-2-carboxylic acid (1-isopropyl-piperidin-4-yl)-amide] | 686 |  | 
20 | CC(C)N1CCC(NC(=O)c2c(F)c3ccccc3n2Cc2cc(-c3ccc(Cl)s3)on2)CC1 [Example 159, 3-Fluoro-1-[5-(5-chloro-thiophen-2-yl)-isoxazol-3-ylmethyl]-1H-indole-2-carboxylic acid (1-isopropyl-piperidin-4-yl)-amide] |  | 2 | 
21 | CC(C)N1CCC(NC(=O)c2c(C#N)c3ccccc3n2Cc2cc(-c3ccc(Cl)s3)on2)CC1 [Example 160, 1-[5-(5-Chloro-thiophen-2-yl)-isoxazol-3-ylmethyl]-3-cyano-1H-indole-2-carboxylic acid (1-isopropyl-piperidin-4-yl)-amide] |  |  | Ki: 0.1 nM
22 | Cc1cccc2c(C#N)c(C(=O)NC3CCN(C(C)C)CC3)n(Cc3cc(-c4ccc(Cl)s4)on3)c12 [Example 161, 1-[5-(5-Chloro-thiophen-2-yl)-isoxazol-3-ylmethyl]-3-cyano-7-methyl-1H-indole-2-carboxylic acid (1-isopropyl-piperidin-4-yl)-amide] |  |  | Ki: 0.1 nM
23 | CC(C)N1CCC(NC(=O)c2cc3ccccc3n2Cc2cnc(-c3ccc(Cl)s3)s2)CC1 [Example 162] |  | 57 | 
24 | CC(C)N1CCC(NC(=O)c2cc3ccccc3n2Cc2cccc(Cl)c2)CC1 [Example 163, 1-(3-Chloro-benzyl)-1H-indole-2-carboxylic acid (1-isopropyl-piperidin-4-yl)-amide] |  | 654 | 
25 | CC(C)N1CCC(NC(=O)c2cc3ccccc3n2Cc2cccc(C(N)=O)c2)CC1 [Example 165, 1-(3-Carbamoyl-benzyl)-1H-indole-2-carboxylic acid (1-isopropyl-piperidin-4-yl)-amide] | 765 |  | 
26 | CC(C)N1CCC(NC(=O)c2cc3ccccc3n2CCc2ccc(Cl)cc2)CC1 [Example 169, 1-[2-(4-Chloro-phenyl)-ethyl]-1H-indole-2-carboxylic acid (1-isopropyl-piperidin-4-yl)-amide] |  | 73 | 
27 | CC(C)N1CCC(NC(=O)c2cc3ccccc3n2CCc2ccc(Cl)cc2Cl)CC1 [Example 170, 1-[2-(2,4-Dichloro-phenyl)-ethyl]-1H-indole-2-carboxylic acid (1-isopropyl-piperidin-4-yl)-amide] |  | 470 | 
